Here are results for one compound from patent US11617718B2, “Process for producing a nano-CBD microemulsion system” (priority 2019, dated 2023).

For data set [1] the following is noted: cited from earlier work.
The nature of data set [2]: Water solubility / water-dispersing ability. The data set is classed as physicochemical. Particulars: FIG. 1, dispersed in water. Here is the method: Producing a carrier: 70 ml of PEG was heated to 70° C. 70 ml of the carrier was added to the above-prepared dispersal phase, this dispersal phase continued to be heating to 100° C. and stirred at a speed of 600 rpm.

Like-named read-outs stand apart in the source and are kept apart here.

`C=C(C)[C@@H]1CCC(C)=C[C@H]1c1c(O)cc(CCCCC)cc1O` [CBD, Cannabidiol]: the half-life result in data set [1] (in vivo) was “about 9 hours”. The results for the bioavailability entry in data set [1] (used nasally (inhalantly)) and in data set [1] (used orally) were “about 31%” and 13-19%, respectively. For the same compound, the water-dispersing ability entry in data set [2] is on record as “insoluble in water”.
